Data reported in US12357617B2, “Discovery of novel anti-infectives for gram negative pathogens” (priority 2018, dated 2025).
In brackets after ≈: the same amount, converted by molar mass. Entries after “also recorded” stand apart in the source; their conditions may differ. Read-outs that look alike come from different tables or passages of the source.

How the values were obtained:
Bt E264 = type: cell-based, Burkholderia thailandensis
Bp 1026b [1] = type: cell-based, Burkholderia pseudomallei
Bp82.285 (BpeEF-OprC+) = experiment: microbe, parasite or virus in culture; type: cell-based; settings: Burkholderia pseudomallei
E. coli 25922 = experiment: MIC by broth microdilution, E. coli 25922; type: cell-based, Escherichia coli; settings: for MIC: Escherichia coli, E. coli 25922, broth microdilution
[2] = tested on: P. aeruginosa resistant isolate 2; experiment: MIC by broth microdilution, P. aeruginosa resistant isolate 2; type: cell-based; settings: Pseudomonas aeruginosa
[3] = tested on: P. aueruginosa ATCC 27853; experiment: MIC by broth microdilution, P. aeruginosa ATCC 27853; type: cell-based, Pseudomonas aeruginosa; settings: for MIC: Pseudomonas aeruginosa, ATCC27853
HEK293 cells = experiment: CellTiter-Glo cell viability (cellular toxicity) assay; settings: for TD = toxic dose (dose at which HEK293 cell growth is significantly affected): Celltitre-Glo, HEK293 cells; for effect on HEK293 cell viability: concentrations 10-fold higher than the IC100, ATP-depletion assay
Bt [4] = type: cell-based, Burkholderia thailandensis
[5] = tested on: E. coli resistant isolate 2; experiment: MIC by broth microdilution, E. coli resistant isolate 2; type: cell-based; settings: Escherichia coli; E. coli resistant isolate 2 (Cip-resistant clinical isolate)
[6] = tested on: S. aureus resistant isolate 2; experiment: MIC by broth microdilution, S. aureus resistant isolate 2; type: cell-based; settings: Staphylococcus aureus
[7] = tested on: S. aureus resistant isolate 1; experiment: MIC by broth microdilution, S. aureus resistant isolate 1; type: cell-based; settings: Staphylococcus aureus
Bp82.284 (BpeEF-OprC+) = experiment: microbe, parasite or virus in culture; type: cell-based; settings: Burkholderia pseudomallei
Bp 1026b [8] = type: in vivo, BALB/c mice
Bp82.270 (BpeEF-OprC+) = experiment: microbe, parasite or virus in culture; type: cell-based; settings: Burkholderia pseudomallei
Bm 23344 = type: cell-based, Burkholderia mallei
Bt [9] = experiment: microbe, parasite or virus in culture; type: cell-based, Burkholderia thailandensis; settings: for MIC: Burkholderia thailandensis, read-out: in vitro MIC
[10] = tested on: E. coli resistant isolate 1; experiment: MIC by broth microdilution, E. coli resistant isolate 1; type: cell-based; settings: Escherichia coli; E. coli resistant isolate 1 (Cip-resistant clinical isolate)
Bp MSHR305 = type: cell-based, Burkholderia pseudomallei
E. coli DNA gyrase = target: T1, E. coli DNA gyrase (Escherichia coli, UniProt P0AES4+P0AES6); experiment: E. coli DNA gyrase negative supercoiling assay; type: biochemical; settings: 100 uM or 500 uM, agarose gel
T1 construct: purchased New England Biolabs
T1 sequence (P0AES4 whole entry, one chain of several): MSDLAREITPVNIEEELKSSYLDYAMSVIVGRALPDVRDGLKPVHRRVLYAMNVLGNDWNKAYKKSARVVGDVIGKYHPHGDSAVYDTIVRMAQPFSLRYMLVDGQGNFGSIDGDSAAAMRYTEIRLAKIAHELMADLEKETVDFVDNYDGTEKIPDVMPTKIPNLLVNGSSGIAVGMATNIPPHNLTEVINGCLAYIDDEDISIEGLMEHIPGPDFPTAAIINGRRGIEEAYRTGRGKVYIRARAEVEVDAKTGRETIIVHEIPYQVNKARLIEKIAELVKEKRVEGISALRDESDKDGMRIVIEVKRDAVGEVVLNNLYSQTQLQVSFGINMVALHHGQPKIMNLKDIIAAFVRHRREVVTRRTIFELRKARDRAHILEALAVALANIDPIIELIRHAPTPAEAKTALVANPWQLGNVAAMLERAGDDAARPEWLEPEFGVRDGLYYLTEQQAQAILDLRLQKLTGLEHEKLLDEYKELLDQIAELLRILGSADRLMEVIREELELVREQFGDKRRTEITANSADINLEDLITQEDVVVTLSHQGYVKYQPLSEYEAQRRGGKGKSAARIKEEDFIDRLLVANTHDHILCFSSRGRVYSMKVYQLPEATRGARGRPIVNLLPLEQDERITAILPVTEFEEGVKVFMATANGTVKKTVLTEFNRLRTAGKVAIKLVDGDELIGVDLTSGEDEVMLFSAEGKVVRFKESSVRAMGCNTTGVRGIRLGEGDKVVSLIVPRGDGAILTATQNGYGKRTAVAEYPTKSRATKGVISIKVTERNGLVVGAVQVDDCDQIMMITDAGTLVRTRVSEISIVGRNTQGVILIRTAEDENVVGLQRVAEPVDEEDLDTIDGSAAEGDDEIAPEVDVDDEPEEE

Bp82 (BpeEF-OprC-) = experiment: microbe, parasite or virus in culture; type: cell-based; settings: Burkholderia pseudomallei
S. aureus ATCC 29213 = experiment: MIC by broth microdilution, S. aureus ATCC 29213; type: cell-based; settings: Staphylococcus aureus, ATCC29213
[11] = tested on: P. aeruginosa resistant isolate 1; experiment: MIC by broth microdilution, P. aeruginosa resistant isolate 1; type: cell-based; settings: Pseudomonas aeruginosa
[12] = tested on: T6SS-5 secretion activity (Hcp), Bp 1026b; type: cell-based, Burkholderia pseudomallei
[13] = tested on: virulence loci (virG, bsaM, bimA, vgrG) of Bt E264; type: cell-based, Burkholderia thailandensis
Bt [14] = type: cell-based, Burkholderia thailandensis; remark: listed apart in the source
[15] = tested on: T6SS-5 secretion activity (Hcp), Bt E264; type: cell-based, Burkholderia thailandensis
[16] = reference 37; cited from earlier work

With `O=c1[nH]cc(F)c(=O)[nH]1` [5-FU, 5-fluorouracil] the “plaque formation by Bt” value (Bt E264; 25 μM) was “completely abolished plaque formation”.

With `CCn1cc(C(=O)O)c(=O)c2cc(F)c(N3CCOCC3)cc21` [BFX, 1-Ethyl-6-fluoro-7-(4-morpholinyl)-4-oxo-1,4-dihydro-3-quinolinecarboxylic acid] the “ED = effective dose (IC100) against Bp” value (Bp 1026b [1]) was 0.1 µM, the “inhibition of plaque formation / intercellular spread by Bp 1026b” value (Bp 1026b [1]) was “near-complete inhibition” and the “inhibition of plaque formation by Bp 1026b (validation)” value (Bp 1026b [1]) was “consistently inhibit plaque formation”. For the same compound, the MIC (Bp82.285 (BpeEF-OprC+)) was 32 µg/mL (≈ 99.9 µM), the “growth of E. coli ATCC 25922 (in words)” value (E. coli 25922) was “inhibitory for the growth” and the MIC (E. coli 25922) was 4 µg/mL (≈ 12.5 µM). For the same compound, the MIC [2] was greater than 7 µg/mL, the “growth of Pseudomonas aeruginosa ATCC 27853 (in words)” value [3] was “inhibitory for the growth” and the MIC [3] was 4 µg/mL (≈ 12.5 µM). The “fold lower concentration than Cip at which plaque formation by Bt is prevented” value (Bt E264) was 8 fold, the “inhibition of plaque formation / intercellular spread by Bt E264” value (Bt E264) was “near-complete inhibition” and the “inhibition of plaque formation by Bt E264 (screen and validation)” value (“inhibition … (screen and validation)” for short) (Bt E264) was “consistently inhibit plaque formation”. For the same compound, the “TD = toxic dose (dose at which HEK293 cell growth is significantly affected)” value (HEK293 cells) was greater than 50 µM, the “effect on HEK293 cell viability” value (HEK293 cells) was “no effect on cell viability” and the “intracellular replication of Bt” value (Bt [4]) was “inhibits intracellular replication”. The MIC [5] was greater than 7 µg/mL, the MIC [6] was greater than 7 µg/mL and the MIC [7] was greater than 7 µg/mL. The MIC (Bp82.284 (BpeEF-OprC+)) was 32 µg/mL (≈ 99.9 µM), the “bacterial loads in liver and spleen compared to lung of surviving mice” value (Bp 1026b [8]; 10 days) was “low or undetectable bacterial loads” and the “bacterial loads in lungs, livers, and spleens” value (Bp 1026b [8]; mouse, in vivo) was “decreased relative to placebo and ceftazidime-treated controls”. For the same compound, the “histopathology: inflammation in pulmonary, hepatic, and splenic tissue” value (Bp 1026b [8]; mouse, in vivo) was “nearly undetectable inflammation”, the “overall efficacy compared to ceftazidime” value (Bp 1026b [8]; mouse, in vivo) was “superiority to ceftazidime” and the “mice surviving the entire study duration (10 days)” value (Bp 1026b [8]; n=8) was 63%. The “mice surviving to five days post-infection” value (Bp 1026b [8]; n=8) was 100%, the MIC (Bp82.270 (BpeEF-OprC+)) was 32 µg/mL (≈ 99.9 µM) and the “inhibition of plaque formation by Bm 23344 (validation)” value (shortened to “inhibition … by Bm 23344 (validation)”) (Bm 23344) was “consistently inhibit plaque formation”. The “dose needed to inhibit growth in laboratory medium” value (Bt [9]) was 5 µM, the “in vitro growth of Bt” value (Bt [9]) was “does not inhibit in vitro growth” and the MIC (Bt [9]) was 2.6 µg/mL (≈ 8.12 µM). The MIC [10] was greater than 7 µg/mL, the “plaque formation by Bp MSHR305” value (Bp MSHR305; 5 μM) was “effective at ablating plaque formation” and the “negative supercoiling activity of E. coli DNA gyrase” value (E. coli DNA gyrase) was “inhibits the negative supercoiling activity”. For the same compound, the MIC (Bp82 (BpeEF-OprC-)) was 2 µg/mL (≈ 6.24 µM), the MIC (S. aureus ATCC 29213) was greater than 7 µg/mL and the MIC [11] was greater than 7 µg/mL.

With `O=c1[nH]c(=O)n([C@@H]2O[C@H](CO)[C@@H](O)[C@H]2O)cc1F` [F-UR, Fluorouridine] the “plaque formation by Bt” value (Bt E264) was “minimally inhibitory; also recorded: fully inhibitory”.

For `COc1cc(Cc2cnc(N)nc2N)cc(OC)c1OC` [trimethoprim], the “inhibition … (screen and validation)” value (Bt E264) was “inhibitors”.

Compound `C[C@H]1COc2c(N3CCN(C)CC3)c(F)cc3c(=O)c(C(=O)O)cn1c23` [Levo, levofloxacin] has an MIC (E. coli 25922) of 4 µg/mL (≈ 11.1 µM), an MIC [2] greater than 7 µg/mL and an MIC [3] of 5 µg/mL (≈ 13.8 µM). It also gave an MIC [5] greater than 7 µg/mL, an MIC [6] greater than 7 µg/mL and an MIC [7] greater than 7 µg/mL. It also gave an MIC [10] greater than 7 µg/mL, an MIC (S. aureus ATCC 29213) greater than 7 µg/mL and an MIC [11] greater than 7 µg/mL.

For `O=c1[nH]c(=O)n([C@H]2C[C@H](O)[C@@H](CO)O2)cc1F` [F-UdR, fluorodeoxyuridine], the “plaque formation by Bt” value (Bt E264) was “lack of inhibitory activity”.

With `Nc1nc(=O)[nH]cc1F` [5-FC, flucytosine] the “ED = effective dose (IC100) against Bp” value (Bp 1026b [1]) was 3.1 µM, the “inhibition of plaque formation by Bp 1026b (validation)” value (Bp 1026b [1]) was “activity against Bp and Bt” and the “plaque formation by Bp at increasing concentrations” value (Bp 1026b [1]) was “inhibits plaque formation”. For the same compound, the “expression of Hcp (pellet)” value [12] was “does not affect expression of Hcp”, the “secretion of Hcp (supernatant)” value [12] was “inhibits secretion of Hcp” and the “inhibition … (screen and validation)” value (Bt E264) was “inhibitors; also recorded: activity against Bp and Bt”. For the same compound, the “intercellular spread by time of addition” value (Bt E264) was “robustly inhibits intercellular spread irrespective of time of addition”, the “plaque formation by Bt” value (Bt E264) was “completely inhibits plaque formation; also recorded: completely abolished plaque formation” and the “plaque formation by Bt at increasing concentrations” value (Bt E264) was “inhibits plaque formation”. For the same compound, the “TD = toxic dose (dose at which HEK293 cell growth is significantly affected)” value (HEK293 cells) was greater than 50 µM, the “effect on HEK293 cell viability” value (HEK293 cells) was “no effect on cell viability” and the “decrease in peak intracellular bacterial numbers” value (Bt [4]) was 3 fold. For the same compound, the “intracellular replication of Bt” value (Bt [4]) was “delays and decreases, but does not eliminate”, the “intracellular replication of a fusion defective mutant (ΔvgrG)” value (Bt [4]) was “does not inhibit the intracellular replication” and the “reduction in the expression of virG, bsaM, bimA, and vgrG” value [13] was no more than 4 fold. The “actin-mediated intracellular motility (bacteria with actin tails)” value (Bt [14]) was “does not inhibit actin-mediated intracellular motility”, the “expression of Hcp (pellet)” value [15] was “does not affect expression of Hcp” and the “secretion of Hcp (supernatant)” value [15] was “inhibits secretion of Hcp”. For the same compound, the “bacterial loads in liver and spleen compared to lung of surviving mice” value (Bp 1026b [8]; mouse, in vivo) was “low or undetectable bacterial loads”, the “bacterial loads in lungs, livers, and spleens” value (Bp 1026b [8]; mouse, in vivo) was “decreased, although to a lesser extent” and the “histopathology: inflammation in pulmonary, hepatic, and splenic tissue” value (Bp 1026b [8]; mouse, in vivo) was “significantly reduced inflammation”. For the same compound, the “mice surviving the entire study duration (10 days)” value (Bp 1026b [8]; mouse, in vivo) was 12%, the “mice surviving to five days post-infection” value (Bp 1026b [8]; mouse, in vivo) was 36.7% and the “overall efficacy compared to ceftazidime” value (Bp 1026b [8]; mouse, in vivo) was “superiority to ceftazidime”. For the same compound, the “inhibition … by Bm 23344 (validation)” value (Bm 23344) was “ineffective”, the bioavailability [16] was “good bioavailability” and the “in vitro growth of Bt” value (Bt [9]) was “does not significantly inhibit in vitro growth”. The “plaque formation by Bp MSHR305” value (Bp MSHR305) was “effective at ablating plaque formation”.

With `CC(C)(O/N=C(\C(=O)N[C@@H]1C(=O)N2C(C(=O)[O-])=C(C[n+]3ccccc3)CS[C@H]12)c1csc(N)n1)C(=O)O` [ceftazidime] the “time by which all animals succumbed to infection” value (Bp 1026b [8]; mouse, in vivo) was “by five days”.

For `CC[C@@]1([C@@H]2O[C@@H]([C@H]3O[C@@](O)(CO)[C@H](C)C[C@@H]3C)C[C@@H]2C)CC[C@H]([C@]2(C)CC[C@]3(C[C@H](O)[C@@H](C)[C@@H]([C@@H](C)[C@@H](OC)[C@H](C)C(=O)O)O3)O2)O1` [monensin], the “inhibition … by Bm 23344 (validation)” value (Bm 23344) was “specific for Bm only”.

For `C[C@@H]1CC[C@H]2[C@@H](C)C(=O)O[C@@H]3O[C@@]4(C)CC[C@@H]1[C@]32OO4` [artemisinin], the “inhibition … by Bm 23344 (validation)” value (Bm 23344) was “specific for Bm only”.

`O=C(O)c1cn(C2CC2)c2cc(N3CCNCC3)c(F)cc2c1=O` [Cip, ciprofloxacin] gave an MIC (Bp82.285 (BpeEF-OprC+)) of 16 to 32 µg/mL (≈ 48.3 to 96.6 µM), an MIC (E. coli 25922) of 2 µg/mL (≈ 6.04 µM) and an MIC [2] greater than 7 µg/mL. The MIC [3] was 4 µg/mL (≈ 12.1 µM), the MIC [6] was greater than 7 µg/mL and the MIC [7] was greater than 7 µg/mL. For the same compound, the MIC (Bp82.284 (BpeEF-OprC+)) was 16 µg/mL (≈ 48.3 µM), the MIC (Bp82.270 (BpeEF-OprC+)) was 16 µg/mL (≈ 48.3 µM) and the MIC (Bt [9]) was 1.3 µg/mL (≈ 3.92 µM). The “negative supercoiling activity of E. coli DNA gyrase” value (E. coli DNA gyrase) was “inhibits the negative supercoiling activity”, the MIC (Bp82 (BpeEF-OprC-)) was 1 µg/mL (≈ 3.02 µM) and the MIC (S. aureus ATCC 29213) was greater than 7 µg/mL. For the same compound, the MIC [11] was greater than 7 µg/mL.
